Laboratory results taken from patent publication US5846934A, “Pure somatostatin antagonist and methods of use thereof” (American Cyanamid Company, priority 1997, dated 1998).
Positions of bridges follow the written chain, without caps; N, C: chain ends. Non-standard residues stand in square brackets, D forms with d. Residues, ends and D or L forms follow the SMILES beside them. NMePhe(4-NO2) = CN[C@@H](Cc1ccc([N+](=O)[O-])cc1)C(=O)O; Phe(4-NO2) = N[C@@H](Cc1ccc([N+](=O)[O-])cc1)C(=O)O; 2Nal = N[C@@H](Cc1ccc2ccccc2c1)C(=O)O; d2Nal = N[C@H](Cc1ccc2ccccc2c1)C(=O)O; Orn = NCCC[C@H](N)C(=O)O

Key:
SSTR2 = SSTR2 (Rattus norvegicus, UniProt P30680); experiment: Competitive binding, displacement of [125I]Tyr11 S-14; parameters: expressed in transfected cells; membrane protein; conditions: for Ki: calculated by method of Cheng and Prusoff, read-out: SSTR2 Binding Affinity Ki; for IC50: displacement of [125I]Tyr11 S-14, 250 pM, room temperature, 2 hours, read-out: SSTR2 Binding Affinity IC50
Chain of SSTR2 (P30680 whole entry): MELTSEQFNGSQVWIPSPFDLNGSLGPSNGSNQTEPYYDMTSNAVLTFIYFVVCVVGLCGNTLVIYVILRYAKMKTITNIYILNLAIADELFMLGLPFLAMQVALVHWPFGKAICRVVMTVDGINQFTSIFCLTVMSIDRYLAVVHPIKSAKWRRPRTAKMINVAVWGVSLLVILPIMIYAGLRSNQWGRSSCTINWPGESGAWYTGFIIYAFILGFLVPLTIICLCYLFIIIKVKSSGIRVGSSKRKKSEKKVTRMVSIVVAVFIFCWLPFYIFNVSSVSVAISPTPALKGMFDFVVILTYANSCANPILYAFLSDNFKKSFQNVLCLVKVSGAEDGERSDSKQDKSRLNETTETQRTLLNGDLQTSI
Method: In this evaluation the concentration of test compound required to displace 50% of somatostatin, SRIF, from the SRIF receptor subtypes expressed in mammalian cells is measured, i.e., the concentration required to inhibit 50% of [^125 I] Tyr^11 S-14 (Amersham) (IC50) from binding to the SRIF receptor subtypes.
Radiolabeled SRIF is mixed with pituitary cells, the test compound is added, the mixture is incubated and the radioactivity is measured as compared to control. Reduced radioactivity indicates successful competitive binding of the test compound to the pituitary cell receptor. The concentration of the test compound in nanomolar units required to displace 50% of SRIF from the pituitary cell receptor is calculated and reported in Table II as the IC50 value. Also calculated is the inhibitory constant, Ki.
Tyr^11 S-14 (150,000 cpm at 2000 Ci/mmole, 250 pM final concentration). The binding reaction is initiated by adding 2-60 μg of membrane protein in a 170 μL volume. Final reaction volume is 200 μl/well. All incubations are carried out at room temperature for 2 hours. Free radioligand is separated from bound ligand by rapid filtration through a glass fiber filter (IH-201-HA) using an Inotech cell harvester. The filter is then washed several times with cold (4° C.) binding buffer lacking BSA and protease inhibitors prior to counting in an LKB gamma master counter (78% efficiency). Whatman GFC filters presoaked in 0.3% polyethylenimine (to decrease background) are used.
The IC50 values and Ki values are calculated using the well-known methods described by Y. Cheng and W. H. Prusoff, Biochem. Pharmacol. 22, 3099-3108 (1973), incorporated herein by reference thereto.

[1] = target: T1, rat somatostatin receptor subtype 2 (SSTR2) (Rattus norvegicus, UniProt P30680); experiment: Yeast assay, somatostatin agonist activity (zone of growth of modified yeast cells); assay type: cell-based; parameters: key: 1 is minimum agonist activity; 5 is maximum agonist activity; --: When no activity is observed, the result is indicated by a dash; conditions: rating on a scale of 1-5 from zone of growth; S. cerevisiae LY364 expressing rat SSTR2
T1 construct: expressed in transfected cells; host or cells: Saccharomyces cerevisiae LY364 bearing pJH2 (SSTR2) and pLP82 (G protein)
T1 sequence (P30680 whole entry): as above
Method: (§1) In this evaluation, yeast cells which have been specifically modified to functionally express rat somatostatin receptor subtype 2 (SSTR2) on their cell surfaces are used. S. Cerevisiae LY364 cells are plated in a standard synthetic agar medium which lacks histidine. In the absence of a somatostatin receptor agonist, the auxotrophic (his3) cells are unable to grow. In the presence of somatostatin, or a somatostatin agonist, the expression of an enzyme (His3p: imidazole-glycerol phosphate dehydratase) which is essential for histidine biosynthesis is induced. The cells become competent to produce histidine, resulting in a zone of growing cells around the applied test compound. The zone is measured and the test compound is given an agonist rating on a scale of 1-5 wherein 1 is minimum agonist activity and 5 is maximum agonist activity.
1) Inoculate 2 mL SCD-ura-trp liquid medium in Falcon 2051 tube with a single colony taken from a plate containing LY364 (MATa ura3-52 leu2 his3 trp1 lys2 ade2 far1:: LYS2 fus1:: FUS1-HIS3 gpa1::hisG sst2::.ADE2 bearing the SSTR2 expression plasmid, pJH2, and the G protein expression plasmid, pLP82) cells.
3) Add 1 mL of LY364 culture to 1 liter of agar medium.
8) Incubate plates at 30° C.
Day 5. Begin checking plates for growth around applied compounds.
(§2) Day 7. Growth in response to somatostatin should be readily observable. Rate extent of growth or inhibition of growth according to rating scale described hereinabove.

[2] = target: T1, rat somatostatin receptor subtype 2 (SSTR2); experiment: Yeast assay, somatostatin antagonist activity (zone of no growth in presence of S-14); assay type: cell-based; parameters: key: 1 is minimum antagonist activity; 5 is maximum antagonist activity; --: When no activity is observed, the result is indicated by a dash; conditions: rating on a scale of 1-5 from zone of no growth; 5 μL of 1 mg/mL S-14 added to each plate
Method: as §1
To evaluate the somatostatin antagonist activity of a test compound, the above procedure is followed except on day 3, 5 μL of 1 mg/mL of somatostatin, S-14, is added to each plate, before applying the test compound. If the test compound is an antagonist of somatostatin, then a zone of no growth will appear within the cell growth zone. This zone of no growth is measured and the test compound is given an antagonist rating on a scale of 1-5 wherein 1 is minimum antagonist activity and 5 is maximum antagonist activity.
The results are shown in Table I. When no activity is observed, the result is indicated by a dash.
On day 3, add 5 μL 1 mg/mL S-14 to each plate.
as §2

Ki (SSTR2) [nM] | IC50 (SSTR2) [nM] | Yeast Assay Agonist [1] | Yeast Assay Antagonist [2] | Structure (SMILES)
0.4 | 0.9 | -- | 1 | C[C@@H](O)[C@@H]1NC(=O)[C@H](CCCCN)NC(=O)[C@@H](Cc2c[nH]c3ccccc23)NC(=O)[C@H](Cc2ccc(O)cc2)NC(=O)[C@H](NC(=O)[C@@H](N)Cc2ccc3ccccc3c2)CSSC[C@@H](C(=O)N[C@@H](Cc2ccc(O)cc2)C(N)=O)NC1=O [L-Nal(2) Tyr Lys Thr Tyr] (H-[2Nal][dC]Y[dW]KTCY-NH2; disulfide 2-7 (inferred); N-terminus and C-terminus assumed)
 |  | -- | 1 | CC(C)[C@@H]1NC(=O)[C@H](CCCN)NC(=O)[C@@H](Cc2c[nH]c3ccccc23)NC(=O)[C@H](Cc2ccc(O)cc2)NC(=O)[C@H](NC(=O)[C@@H](N)Cc2ccc([N+](=O)[O-])cc2)CSSC[C@@H](C(=O)N[C@@H](Cc2ccc(O)cc2)C(N)=O)NC1=O [4-NO2 Phe Tyr Orn Val Tyr] (H-[Phe(4-NO2)][dC]Y[dW][Orn]VCY-NH2; disulfide 2-7 (inferred); N-terminus and C-terminus assumed)
3.1 | 7 | -- | 2 | CC(C)[C@@H]1NC(=O)[C@H](CCCCN)NC(=O)[C@@H](Cc2c[nH]c3ccccc23)NC(=O)[C@H](Cc2ccc(O)cc2)NC(=O)[C@H](NC(=O)[C@@H](N)Cc2ccc([N+](=O)[O-])cc2)CSSC[C@@H](C(=O)N[C@@H](Cc2ccc3ccccc3c2)C(N)=O)NC1=O [4-NO2 Phe Tyr Lys Val Nal(2)] (H-[Phe(4-NO2)][dC]Y[dW]KVC[2Nal]-NH2; disulfide 2-7 (inferred); N-terminus and C-terminus assumed)
12.9 | 29 | -- | 5 | CC(C)[C@@H]1NC(=O)[C@H](CCCCN)NC(=O)[C@@H](Cc2c[nH]c3ccccc23)NC(=O)[C@H](Cc2ccc(O)cc2)NC(=O)[C@H](NC(=O)[C@@H](N)Cc2ccc([N+](=O)[O-])cc2)CSSC[C@@H](C(=O)N[C@@H](Cc2ccc(O)cc2)C(N)=O)NC1=O [4-NO2 Phe Tyr Lys Val Tyr] (H-[Phe(4-NO2)][dC]Y[dW]KVCY-NH2; disulfide 2-7 (inferred); N-terminus and C-terminus assumed)
2.67 | 6 | -- | 5 | CN[C@@H](Cc1ccc([N+](=O)[O-])cc1)C(=O)N[C@@H]1CSSC[C@@H](C(=O)N[C@@H](Cc2ccc(O)cc2)C(N)=O)NC(=O)[C@H](C(C)C)NC(=O)[C@H](CCCCN)NC(=O)[C@@H](Cc2c[nH]c3ccccc23)NC(=O)[C@H](Cc2ccc(O)cc2)NC1=O [NMe-4-NO2 Phe Tyr Lys Val Tyr] (H-[NMePhe(4-NO2)][dC]Y[dW]KVCY-NH2; disulfide 2-7 (inferred); N-terminus and C-terminus assumed)
25 | 57 | -- | 2 | C[C@@H](O)[C@@H]1NC(=O)[C@H](CCCNC(=N)N)NC(=O)[C@@H](Cc2c[nH]c3ccccc23)NC(=O)[C@H](Cc2ccc(O)cc2)NC(=O)[C@H](NC(=O)[C@@H](N)Cc2ccc([N+](=O)[O-])cc2)CSSC[C@@H](C(=O)N[C@@H](Cc2ccc(O)cc2)C(N)=O)NC1=O [4-NO2 Phe Tyr Arg Thr Tyr] (H-[Phe(4-NO2)][dC]Y[dW]RTCY-NH2; disulfide 2-7 (inferred); N-terminus and C-terminus assumed)
0.48 | 1 | -- | 1 | CC(=O)N[C@@H](Cc1ccc2ccccc2c1)C(=O)N[C@@H]1CSSC[C@@H](C(=O)N[C@@H](Cc2ccc(O)cc2)C(N)=O)NC(=O)[C@H]([C@@H](C)O)NC(=O)[C@H](CCCCN)NC(=O)[C@@H](Cc2c[nH]c3ccccc23)NC(=O)[C@H](Cc2ccc(O)cc2)NC1=O [Ac-Nal(2) Tyr Lys Thr Tyr] (Ac-[2Nal][dC]Y[dW]KTCY-NH2; disulfide 2-7 (inferred); N-terminus and C-terminus assumed)
 |  | -- | 4 | CC(=O)N[C@@H](Cc1ccc(I)cc1)C(=O)N[C@@H]1CSSC[C@@H](C(=O)N[C@H](Cc2ccc(O)cc2)C(N)=O)NC(=O)[C@H]([C@@H](C)O)NC(=O)[C@H](CCCCN)NC(=O)[C@@H](Cc2c[nH]c3ccccc23)NC(=O)[C@H](Cc2ccc(O)cc2)NC1=O [Ac-4-IPhe Tyr Lys Thr D-Tyr]

Structure (SMILES) | Ki (SSTR2) [nM] | IC50 (SSTR2) [nM] | Yeast Assay Agonist [1] | Yeast Assay Antagonist [2]
C[C@@H](O)[C@@H]1NC(=O)[C@H](CCCCN)NC(=O)[C@@H](Cc2c[nH]c3ccccc23)NC(=O)[C@H](Cc2ccc(O)cc2)NC(=O)[C@H](NC(=O)[C@@H](N)Cc2ccc([N+](=O)[O-])cc2)CSSC[C@@H](C(=O)N[C@H](Cc2ccc(O)cc2)C(N)=O)NC1=O [4-NO2 Phe Tyr Lys Thr D-Tyr] | 1.5 | 3 | -- | 4
CC(C)[C@@H]1NC(=O)[C@H](CCCCN)NC(=O)[C@@H](Cc2c[nH]c3ccccc23)NC(=O)[C@H](Cc2ccc(O)cc2)NC(=O)[C@H](NC(=O)[C@H](N)Cc2ccc3ccccc3c2)CSSC[C@@H](C(=O)N[C@@H](Cc2ccc(O)cc2)C(N)=O)NC1=O [D-Nal(2) Tyr Lys Val Tyr] (H-[d2Nal][dC]Y[dW]KVCY-NH2; disulfide 2-7) | 0.89 | 2 | -- | 2
C[C@@H](O)[C@@H]1NC(=O)[C@H](CCCCN)NC(=O)[C@@H](Cc2c[nH]c3ccccc23)NC(=O)[C@H](Cc2ccc(O)cc2)NC(=O)[C@H](NC(=O)[C@@H](N)Cc2ccc([N+](=O)[O-])cc2)CSSC[C@@H](C(=O)N[C@@H](Cc2ccc(O)cc2)C(N)=O)NC1=O [4-NO2 Phe Tyr Lys Thr Tyr] | 1.33 | 3 | -- | 5
CC(C)[C@@H]1NC(=O)[C@H](CCCCN)NC(=O)[C@@H](Cc2c[nH]c3ccccc23)NC(=O)[C@H](Cc2ccc(O)cc2)NC(=O)[C@H](NC(=O)[C@@H](N)Cc2ccc3ccccc3c2)CSSC[C@@H](C(=O)N[C@@H](Cc2ccc(O)cc2)C(N)=O)NC1=O [L-Nal(2) Tyr Lys Val Tyr] (H-[2Nal][dC]Y[dW]KVCY-NH2; disulfide 2-7) | 2.22 | 5 | -- | 3
CC(=O)N[C@@H](Cc1ccc([N+](=O)[O-])cc1)C(=O)N[C@@H]1CSSC[C@@H](C(=O)N[C@H](Cc2ccc(O)cc2)C(N)=O)NC(=O)[C@H]([C@@H](C)O)NC(=O)[C@H](CCCCN)NC(=O)[C@@H](Cc2c[nH]c3ccccc23)NC(=O)[C@H](Cc2ccc(O)cc2)NC1=O [Ac-4-NO2 Phe Tyr Lys Thr D-Tyr] | 0.3 | 0.7 | -- | 4
